Assay results from ChEMBL document CHEMBL1159054, “Cyclic diarylheptanoids as Na+-glucose cotransporter (SGLT) inhibitors from Acer nikoense” (Bioorg Med Chem Lett, 2010).

Columns and labels:
[1] = biological target: T1, Sodium/glucose cotransporter 1 (Homo sapiens) (UniProt P13866); experiment: Inhibition of human SGLT1 expressed in COS1 cells assessed as [14C]methyl-alpha-D-glucopyranoside uptake at 50 uM; type: cell-based; conditions: COS-1
T1 sequence (whole entry): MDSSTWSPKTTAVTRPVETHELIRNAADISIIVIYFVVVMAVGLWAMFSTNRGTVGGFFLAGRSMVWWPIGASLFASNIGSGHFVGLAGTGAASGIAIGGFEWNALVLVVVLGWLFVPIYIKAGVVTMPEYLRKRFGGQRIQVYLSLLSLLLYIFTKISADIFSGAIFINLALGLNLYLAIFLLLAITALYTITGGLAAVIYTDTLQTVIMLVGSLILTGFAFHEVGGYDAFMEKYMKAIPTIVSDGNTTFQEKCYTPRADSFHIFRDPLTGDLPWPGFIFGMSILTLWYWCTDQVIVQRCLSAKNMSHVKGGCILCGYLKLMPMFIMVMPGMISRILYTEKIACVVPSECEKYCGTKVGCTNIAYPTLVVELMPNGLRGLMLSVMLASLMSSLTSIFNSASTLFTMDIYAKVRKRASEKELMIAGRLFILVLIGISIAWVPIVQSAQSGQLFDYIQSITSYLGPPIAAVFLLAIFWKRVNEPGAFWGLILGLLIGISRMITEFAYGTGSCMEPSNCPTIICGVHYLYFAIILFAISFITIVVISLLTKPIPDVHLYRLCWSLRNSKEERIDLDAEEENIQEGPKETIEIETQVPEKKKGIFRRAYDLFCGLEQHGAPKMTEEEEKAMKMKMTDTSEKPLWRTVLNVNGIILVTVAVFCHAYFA

[2] = biological target: T2, Sodium/glucose cotransporter 2 (Homo sapiens) (UniProt P31639); experiment: Inhibition of human SGLT2 expressed in COS1 cells assessed as [14C]methyl-alpha-D-glucopyranoside uptake at 50 uM; type: cell-based; conditions: COS-1
T2 sequence (whole entry): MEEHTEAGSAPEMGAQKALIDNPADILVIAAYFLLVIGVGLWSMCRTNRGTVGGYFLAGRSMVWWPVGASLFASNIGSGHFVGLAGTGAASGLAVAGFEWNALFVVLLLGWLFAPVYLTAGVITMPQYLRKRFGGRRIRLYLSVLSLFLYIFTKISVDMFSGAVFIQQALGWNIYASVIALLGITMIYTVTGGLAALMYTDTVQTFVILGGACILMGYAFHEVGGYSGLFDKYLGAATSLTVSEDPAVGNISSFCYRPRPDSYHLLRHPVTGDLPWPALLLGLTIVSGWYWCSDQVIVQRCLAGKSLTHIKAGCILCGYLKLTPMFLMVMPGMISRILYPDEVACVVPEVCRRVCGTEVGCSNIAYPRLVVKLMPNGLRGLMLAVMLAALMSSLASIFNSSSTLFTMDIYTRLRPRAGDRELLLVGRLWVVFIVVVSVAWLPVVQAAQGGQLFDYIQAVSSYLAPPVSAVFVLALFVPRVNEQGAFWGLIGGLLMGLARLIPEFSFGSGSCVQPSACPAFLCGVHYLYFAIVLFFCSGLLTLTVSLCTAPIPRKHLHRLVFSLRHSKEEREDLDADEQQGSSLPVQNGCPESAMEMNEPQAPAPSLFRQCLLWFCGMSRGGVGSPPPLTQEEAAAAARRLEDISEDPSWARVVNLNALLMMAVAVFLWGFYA

Structure (SMILES) | inhibition [1] [%] | inhibition [2] [%]
COc1ccc2cc1Oc1ccc(cc1)CCCCC(O)CC2 (stereo not drawn) | 77.9 | 62.4
Oc1ccc2cc1Oc1ccc(cc1)CCCCCCC2 | 96.3 | 77.4
Oc1ccc2cc1Oc1ccc(cc1)CC[C@H](O)CCCC2 | 92.7 | 33.9
CC(C)C(=O)Oc1ccc2cc1Oc1ccc(cc1)CC[C@@H](OC(=O)C(C)C)CCCC2 | 20.6 | 34.3
O=C1CCCCc2ccc(O)c(c2)Oc2ccc(cc2)CC1 | 44.9 | 67.8
O=C1CCCCc2ccc(OCc3ccccc3)c(c2)Oc2ccc(cc2)CC1 | 3.9 | 19.8
O=C(Oc1ccc2cc1Oc1ccc(cc1)CC[C@@H](OC(=O)c1ccc(Cl)cc1)CCCC2)c1ccc(Cl)cc1 | 15.7 | 16.8
Oc1ccc2cc1Oc1ccc(cc1)C/C=C/CCCC2 | 73.7 | 15.3
COc1ccc2cc1Oc1ccc(cc1)CCCCC(=O)CC2 | 37.7 | 65.4
O[C@H]1CCCCc2ccc(OCc3ccccc3)c(c2)Oc2ccc(cc2)CC1 | 31.4 | 45.3
CC(=O)Oc1ccc2cc1Oc1ccc(cc1)CCC(=O)CCCC2 | 13.5 | 19.3
OC[C@H]1O[C@H](Oc2ccc3cc2Oc2ccc(cc2)CC[C@@H](O)CCCC3)[C@H](O)[C@@H](O)[C@@H]1O | 18.3 | 15
O=C(Oc1ccc2cc1Oc1ccc(cc1)CC[C@@H](OC(=O)c1ccccc1)CCCC2)c1ccccc1 | -1.7 | -9.7
Oc1ccc2cc1Oc1ccc(cc1)CCCC[C@H](O)CC2 | 94.2 | 54.2
COc1ccc2cc1Oc1ccc(cc1)CC[C@@H](O)CCCC2 | 67.8 | 29.5
CC(=O)Oc1ccc2cc1Oc1ccc(cc1)CC[C@@H](OC(C)=O)CCCC2 | 68.8 | 67.5
O=C1CCc2ccc(cc2)Oc2cc(ccc2O)CCCCN1 | 46.5 | 76.9
O=C1CCCCc2ccc(OC(=O)c3ccccc3)c(c2)Oc2ccc(cc2)CC1 | 1.4 | 45.2
COc1ccc2cc1Oc1ccc(cc1)CCC(=O)CCCC2 | 44.6 | 53.3
